# According to patent US10829519B2, “Angiotensin (1-7) analogs and methods relating thereto” (WAKE FOREST UNIVERSITY HEALTH SCIENCES, priority 2015, dated 2020):
# Like-named read-outs stand apart in the source and are kept apart here. Where a SMILES comes first, the peptide text is derived from it. Bridges are numbered along the chain shown (N, C = ends). [ ]: non-standard residue; d: D form. Nle = CCCC[C@H](N)C(=O)O
# What was measured:
# [1] = tested on: MDA-MB-231 human breast cancer cells; assay type: cell-based; conditions: 7 to 10 days; for effect on MDA-MB-231 cell growth / reduction of cell growth: 100 nM; for effect on MDA-MB-231 cell growth: added once (Day 0/Day 1); for reduction of cell growth: analogs added on Day 0 (single dose), cell number
# Protocol: (§1) To determine the effect of the peptide analogs on tumor cell growth, 100 nM Ang-(1-7) or analogs TCAng01-TCAng05 (SEQ ID NOs:2-6) were incubated with subconfluent monolayers of actively growing A549 human lung cancer cells or MDA-MB-231 human breast cancer cells in 24-well cluster plates for 6 to 10 days or 7 to 10 days. Assays were performed in duplicate for 4-14 replicates or 3-14 replicates, respectively. Cell number was counted using a Nexelcom Cellometer. […] Ang-(1-7) does inhibit the growth of human breast cancer cells (by 42.9±5.2%, n=6, over 6-10 days) and human lung cancer cells (by 53.1±7.1%, n=12, over 7-10 days) if it is added daily, as shown in FIG. 2 and FIG. 3.
# A linear form of TCAng05 (L-TCAng05; SEQ ID NO:7) was tested to determine the influence of cyclization on the stability of the peptide. Subconfluent monolayers of MDA-MB-231 human breast cancer cells were incubated with 100 nM of Ang-(1-7), L-TCAng05, or TCAng05 for 7 to 10 days and cell number was counted using a Nexelcom Cellometer. Assays were performed in duplicate for 3-14 replicates. Ang-(1-7) was added daily, due to its rapid degradation.
# Similar assays were performed to assess whether inhibition of cell growth by TCAng05 was mediated by the Ang-(1-7) receptor mas. Subconfluent monolayers of MDA-MB-231 human breast cancer cells were incubated with 100 nM of Ang-(1-7), added daily, or TCAng05, in the presence or absence of 1 μM Ang-(1-7) receptor antagonist D-Alanine^7-Ang-(1-7) [Dala] for 7 to 10 days and cell number was counted using a Nexelcom Cellometer. Assays were performed in duplicate for 4-14 replicates.
# [2] = Stability of peptides incubated in rat plasma at 37° C., HPLC; assay type: in vitro ADME
# Protocol: The stability of the Ang(1-7) peptide analog TCAng04 (SEQ ID NO:5) was assessed in rat plasma. The peptide was incubated with rat plasma at 37° C. for 60 min (left) or 125 hours (right). The concentration of TCAng04 and Ang-(1-7) was determined by HPLC using verified standards. Ang-(1-7) was rapidly degraded following incubation in rat plasma with a half-life of about 30 min, similar to the pharmacokinetics observed in two clinical trials (FIG. 1B) (see Rodgers et al. Cancer Chemother Pharmacol 2006; 57:559-68; and Petty et al. Clinical Cancer Research 2009; 15:7398-404). Conversely, TCAng04 was stable under the same conditions, with a half-life in rat plasma of approximately 50 hours.
# 4T1 breast cancer cells [3] = experiment: In vivo inhibition of tumor growth by subcutaneous administration, orthotopic 4T1 model in BALB/C mice; parameters: species or system mouse
# Protocol: The ability of TCAng05 to inhibit tumor growth in vivo was measured in an orthotopic model of human breast cancer, using 4T1 breast cancer cells. 4T1 cells (2.5×10^5 in saline) were injected into the 4th mammary fat pad of BALB/C mice. Tumor size was measured every 3 days using a caliper and tumor volume was calculated using the formula for a semi-ellipsoid. The tumors were allowed to grow until they reached a size of 100 mm^3, at which point subcutaneous treatment was started (Day 0). Primed osmotic mini-pumps were implanted into the subcutaneous space on the back of each mouse to deliver either saline, 24 μg/kg/h Ang-(1-7), 6 μg/kg/h TCAng05 (low), 12 μg/kg/h TCAng05 (medium), or 24 μg/kg/h TCAng05 (high). Mice were sacrificed on Day 21 of treatment. Five animals were used per treatment group. […] Treatment with Ang-(1-7) reduced tumor size 50%, to a final size of 495.5±110.8 mm^3. […] At the time of sacrifice, the mice were weighed and the tumors, heart and kidneys were weighed.
# [4] = tested on: MDA-MB-231 human breast cancer cells; experiment: In vitro inhibition of MDA-MB-231 cell growth by analogs with amino acid substitutions (Example 7); assay type: cell-based; conditions: 100 nM, 8-10 days; for growth inhibition compared with Ang-(1-7) and TCAng05: added twice weekly
# Protocol: To determine whether the novel analogs reduced tumor growth, subconfluent monolayers of actively growing MDA-MB-231 human breast cancer cells in 24-well cluster plates were incubated with 100 nM of Ang(1-7) (A7), TCAng05 (TC), or one of analogs NEP1-24 for 8-10 days. Ang-(1-7) was added daily as it is rapidly degraded while the Ang(1-7) analogs were added twice weekly at the time the cells were fed. Saline was used as control (C). Cell numbers were then counted using a Nexelcom Cellometer. Assays were performed in triplicate for 2-4 replicates.
# [5] = tested on: A549 human lung cancer cells; assay type: cell-based; conditions: 100 nM, analogs added on Day 0 (single dose), cell number
# Protocol: as §1
# CD34 = CD34 immunohistochemistry of tumors from orally treated mice (blood vessel density); assay type: in vivo, mouse; conditions: oral TCAng05
# Protocol: (§2) To identify the molecular mechanisms for the reduction in tumor weight, tumors from mice that received oral TCAng05 (described in Example 5) were assessed for cell markers associated with cell proliferation, angiogenesis, and fibrosis. Tumors were fixed in 4% formalin, embedded in paraffin, sectioned at 5 microns, and analyzed by immunohistochemistry. Tumor tissue sections were visualized using a Leica DM microscope (Leica Microsystems, Bannockburn, Ill.) with the Simple PCI Version 6.0 computer-assisted imaging software (Hamamatsu Corporation, Sewickley, Pa.) and photographed with the Qlmaging Retiga 1300R Camera (Qlmaging Co. Surey, BC, Canada). The number of immunopositive cells is expressed as a percentage of the total cell number examined (100 cells counted from each tissue site within a tumor section).
# Tumor sections were stained with an antibody specific for CD34 to label endothelial cells lining blood vessels and measure the density of blood vessels. […] In previous studies with orthotopic models, Ang-(1-7) reduced angiogenesis in mice with human lung tumors or human prostate tumors (Soto-Pantoj a et al., Mol Cancer Ther 2009; 8:1676-83; Krishnan et al., Prostate 2013; 73:60-70). This is in agreement with a reduction in the pro-angiogenic peptide platelet-derived growth factor (PDGF) in patients with solid tumors treated with Ang-(1-7) (Petty et al., BMC Cancer 2012; 12:404).
# 4T1 breast cancer cells [6] = assay type: in vivo, mouse; conditions: for final tumor volume: daily gavage, untreated 671.2±127.2
# Protocol: The oral efficacy of TCAng05 to inhibit tumor growth in vivo was also measured using the orthotopic model of human breast cancer described in Example 4. 4T1 breast cancer cells were injected into the mammary fat pad of BALB/C mice (2.5×10^5 cells in saline). Tumor size was measured every 3 days using a caliper and tumor volume was calculated using the formula for a semi-ellipsoid. The tumors were allowed to grow until they reached a size of 100 mm^3, at which point treatment was started (Day 0). Mice received daily gavage of TCAng05 at one of three concentrations: 12 μg/kg/day (Low), 60 μg/kg/day (Medium), or 300 μg/kg/day (High). Mice were sacrificed on Day 21 of treatment. Treatment groups contained 3-4 animals. […] At the time of sacrifice, the tumors were weighed.
# Ki67 = Ki67 immunohistochemistry of tumors from orally treated mice (cell proliferation); assay type: in vivo, mouse; conditions: oral TCAng05, 12, 60, 300 μg/kg/day
# Protocol: as §2
# Tumor sections were stained with an antibody specific for Ki67 to measure cell proliferation.
# collagen = experiment: Picrosirius red collagen staining of tumors from orally treated mice (fibrosis); assay type: in vivo, mouse; conditions: oral TCAng05
# Protocol: as §2
# Tumor sections were stained with Picrosirius red to stain for collagen.
# [7] = rat plasma, 37° C., HPLC, read-out: half-life in rat plasma (converted)
compound,measurement,setting,value
"Ac-(Nle)DRVYIHPK(dV)(dP)-amide (Ac-[Nle]DRVYIHPK[dV][dP]-NH2; SMILES CCCC[C@H](NC(C)=O)C(=O)N[C@@H](CC(=O)O)C(=O)N[C@@H](CCCNC(=N)N)C(=O)N[C@H](C(=O)N[C@@H](Cc1ccc(O)cc1)C(=O)N[C@H](C(=O)N[C@@H](Cc1c[nH]cn1)C(=O)N1CCC[C@H]1C(=O)N[C@@H](CCCCN)C(=O)N[C@@H](C(=O)N1CCC[C@@H]1C(N)=O)C(C)C)[C@@H](C)CC)C(C)C) [L-TCAng05, linear form of TCAng05]",effect on MDA-MB-231 cell growth,[1],ineffective
"CC[C@H](C)[C@H](NC(=O)[C@H](Cc1ccc(O)cc1)NC(=O)[C@@H](NC(=O)[C@H](CCCNC(=N)N)NC(=O)[C@@H](N)CC(=O)O)C(C)C)C(=O)N[C@@H](Cc1c[nH]cn1)C(=O)N1CCC[C@H]1C(=O)O [Ang-(1-7), DRVYIHP]",half-life,[2]; [7],~30 min
same,half-life,[2]; read-out: half-life in plasma,30 min
same,"weight of the mice, size of hearts and kidneys","4T1 breast cancer cells [3]; subcutaneous treatment, at sacrifice",no change
"[Lac(2,9)]Ac-(Nle)cyc[DRVYIHP(Dab)](dV)(dP)-amide [NEP24]",growth inhibition compared with Ang-(1-7) and TCAng05,[4],reduced cell growth comparably
"[Lac(2,9)]Ac-(Nle)cyc[DRVYIHP(NMeK)](dV)(dP)-amide [NEP20]",growth inhibition compared with Ang-(1-7) and TCAng05,[4],reduced cell growth comparably
"[Lac(2,9)]H2N-(Nle)cyc[DRVYIHPK](dV)(dP)-amide (H-[Nle]DRVYIHPK[dV][dP]-NH2; lactam 2-9; not fully specified; printed as [Lac(2,9)]H2N-(Nle)cyc[DRVYIHPK](dV)(dP)-amide) [NEP16]",growth inhibition compared with Ang-(1-7) and TCAng05,[4],reduced cell growth comparably
"[Lac(2,9)]Ac-(Nle)cyc[DRVYIHP(K)-amide] (Ac-[Nle]DRVYIHPK-NH2; lactam 2-9; not fully specified; printed as [Lac(2,9)]Ac-(Nle)cyc[DRVYIHP(K)-amide]) [NEP8]",growth inhibition compared with Ang-(1-7) and TCAng05,[4],reduced cell growth comparably
"[Lac(2,9)]Ac-(Nle)cyc[DRVYAHPK](dV)(dP)-amide (Ac-[Nle]DRVYAHPK[dV][dP]-NH2; lactam 2-9; not fully specified; printed as [Lac(2,9)]Ac-(Nle)cyc[DRVYAHPK](dV)(dP)-amide) [NEP4]",growth inhibition compared with Ang-(1-7) and TCAng05,[4],reduced cell growth comparably
"CC[C@H](C)[C@@H]1NC(=O)[C@H](Cc2ccc(O)cc2)NC(=O)[C@H](C(C)C)NC(=O)[C@H](CCCNC(=N)N)NC(=O)[C@H](CC(=O)O)NC(=O)C[C@@H](C(=O)N[C@@H](C(=O)N2CCC[C@@H]2C(N)=O)C(C)C)NC(=O)[C@@H]2CCCN2C(=O)[C@H](Cc2c[nH]cn2)NC1=O [TCAng04, cyc[DRVYIHPD](dV)(dP)-amide] (DRVYIHPD[dV][dP]-NH2; lactam N-8)",reduction of cell growth,[1],51.5±5.4%
same,half-life,[2]; [7],~3000 min
same,reduction of cell growth,[5],33.7±12.3%
"[Lac(2,9)[Ac-(Nle)cyc[DRVYIHPK](dV)(dP)-amide (Ac-[Nle]DRVYIHPK[dV][dP]-NH2; lactam 2-9; not fully specified; printed as [Lac(2,9)[Ac-(Nle)cyc[DRVYIHPK](dV)(dP)-amide) [TCAng05]",inhibition of growth in the presence of Ang-(1-7) receptor antagonist Dala,[1]; 100 nM peptide plus 1 μM D-Alanine7-Ang-(1-7) [Dala],blocked
same,effect on MDA-MB-231 cell growth,[1],reduced growth
same,reduction of cell growth,[1],51.5±5.4%
same,reduction of cell growth,"[4]; Ang-(1-7) added daily, analogs added twice weekly",27.3±9.8%
same,density of blood vessels (CD34) in tumor sections,CD34,significant reduction
same,final tumor size (volume),"4T1 breast cancer cells [3]; 24 μg/kg/h, subcutaneous osmotic mini-pump, saline 980.1±35.0",259.1±19.2 mm^3
same,tumor size across doses,"4T1 breast cancer cells [3]; 6, 12, 24 μg/kg/h subcutaneous",dose-dependent reduction
same,reduction in tumor weight,"4T1 breast cancer cells [3]; highest concentration (24 μg/kg/h), subcutaneous, at sacrifice",48%
same,effect of low and medium doses,"4T1 breast cancer cells [3]; low (6 μg/kg/h) and medium (12 μg/kg/h) doses, subcutaneous",not significantly impact
same,"weight of the mice, size of hearts and kidneys","4T1 breast cancer cells [3]; mouse, in vivo, sc",no change
same,reduction of cell growth,[5],33.7±12.3%
same,final tumor volume,4T1 breast cancer cells [6]; high dose 300 μg/kg/day,378.3±151.2 mm^3
same,effect of low dose,"4T1 breast cancer cells [6]; low dose 12 μg/kg/day, oral",not significantly impact
same,final tumor volume,4T1 breast cancer cells [6]; medium dose 60 μg/kg/day,289.7±64.2 mm^3
same,tumor weight,"4T1 breast cancer cells [6]; medium or high oral dose, at sacrifice",reduced
same,"mouse weight, heart weight or kidney weight","4T1 breast cancer cells [6]; mouse, in vivo, po",no effect
same,Ki67 immunoreactivity in tumor sections,Ki67,dose-dependent reduction
same,collagen staining (Picrosirius red) in tumor sections,collagen,reduced
"[Lac(2,9)]Ac-(Nle)cyc[DRVYLHPK](dV)(dP)-amide (Ac-[Nle]DRVYLHPK[dV][dP]-NH2; lactam 2-9; not fully specified; printed as [Lac(2,9)]Ac-(Nle)cyc[DRVYLHPK](dV)(dP)-amide) [NEP12]",growth inhibition compared with Ang-(1-7) and TCAng05,[4],reduced cell growth comparably
